Values joined by “and” are separate entries in the source; they are usually repeats but may differ in a detail not shown here. Identical values can stand only once.
Assays:
Assay in all cases: radiometric filter-binding kinase assay
MARK2 (human) = MARK2 (human) (UniProt Q7KZI7); settings: compound 10.0 µM
EIF2AK3 (human) = EIF2AK3 (human) (UniProt Q9NZJ5)
DYRK3 (human) = DYRK3 (human) (UniProt O43781)
MAPK13 (human) = MAPK13 (human) (UniProt O15264)
MAP2K6 (human) = MAP2K6 (human) (UniProt P52564)
[1] = tested on: SGK1 (human), O00141 [S422D]
JAK2 JH1 JH2 (human) = JAK2 JH1 JH2 (human) (UniProt O60674)
NUAK1 (human) = NUAK1 (human) (UniProt O60285)
MAPKAPK2 (human) = MAPKAPK2 (human) (UniProt P49137)
MAPK14 (human) = MAPK14 (human) (UniProt Q16539)
PDPK1 (human) = PDPK1 (human) (UniProt O15530)
MAPK12 (human) = MAPK12 (human) (UniProt P53778)
MKNK1 (human) = MKNK1 (human) (UniProt Q9BUB5)
HIPK1 (human) = HIPK1 (human) (UniProt Q86Z02)
CHEK2 (human) = CHEK2 (human) (UniProt O96017)

PDPK1 (human), sequence (O15530 whole entry, looked up): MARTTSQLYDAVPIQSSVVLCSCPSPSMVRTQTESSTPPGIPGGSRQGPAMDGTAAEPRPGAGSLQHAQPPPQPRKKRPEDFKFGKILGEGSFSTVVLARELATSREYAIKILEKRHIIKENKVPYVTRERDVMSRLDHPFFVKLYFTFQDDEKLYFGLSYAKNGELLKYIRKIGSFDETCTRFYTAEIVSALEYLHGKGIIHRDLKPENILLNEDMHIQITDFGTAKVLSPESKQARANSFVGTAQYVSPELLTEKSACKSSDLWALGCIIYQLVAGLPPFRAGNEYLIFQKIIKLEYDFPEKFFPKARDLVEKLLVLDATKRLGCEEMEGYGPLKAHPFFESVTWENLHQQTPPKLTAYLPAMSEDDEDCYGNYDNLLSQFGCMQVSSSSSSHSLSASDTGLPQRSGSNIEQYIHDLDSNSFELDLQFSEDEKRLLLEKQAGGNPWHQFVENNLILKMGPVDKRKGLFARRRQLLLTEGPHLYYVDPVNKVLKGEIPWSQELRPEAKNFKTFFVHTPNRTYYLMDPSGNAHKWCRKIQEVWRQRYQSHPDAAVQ
MAPKAPK2 (human), sequence (P49137 whole entry, looked up): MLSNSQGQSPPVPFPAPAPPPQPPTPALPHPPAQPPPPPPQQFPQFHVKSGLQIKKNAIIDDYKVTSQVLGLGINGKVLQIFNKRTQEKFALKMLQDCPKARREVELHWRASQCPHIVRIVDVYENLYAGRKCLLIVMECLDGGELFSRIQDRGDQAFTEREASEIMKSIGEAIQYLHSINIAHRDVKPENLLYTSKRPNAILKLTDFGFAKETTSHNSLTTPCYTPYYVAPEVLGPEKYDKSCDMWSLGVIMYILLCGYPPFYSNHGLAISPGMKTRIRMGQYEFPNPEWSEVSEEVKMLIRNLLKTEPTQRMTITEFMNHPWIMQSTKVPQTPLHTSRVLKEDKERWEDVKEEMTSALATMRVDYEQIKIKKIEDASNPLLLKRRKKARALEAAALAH
HIPK1 (human), sequence (Q86Z02 whole entry, looked up): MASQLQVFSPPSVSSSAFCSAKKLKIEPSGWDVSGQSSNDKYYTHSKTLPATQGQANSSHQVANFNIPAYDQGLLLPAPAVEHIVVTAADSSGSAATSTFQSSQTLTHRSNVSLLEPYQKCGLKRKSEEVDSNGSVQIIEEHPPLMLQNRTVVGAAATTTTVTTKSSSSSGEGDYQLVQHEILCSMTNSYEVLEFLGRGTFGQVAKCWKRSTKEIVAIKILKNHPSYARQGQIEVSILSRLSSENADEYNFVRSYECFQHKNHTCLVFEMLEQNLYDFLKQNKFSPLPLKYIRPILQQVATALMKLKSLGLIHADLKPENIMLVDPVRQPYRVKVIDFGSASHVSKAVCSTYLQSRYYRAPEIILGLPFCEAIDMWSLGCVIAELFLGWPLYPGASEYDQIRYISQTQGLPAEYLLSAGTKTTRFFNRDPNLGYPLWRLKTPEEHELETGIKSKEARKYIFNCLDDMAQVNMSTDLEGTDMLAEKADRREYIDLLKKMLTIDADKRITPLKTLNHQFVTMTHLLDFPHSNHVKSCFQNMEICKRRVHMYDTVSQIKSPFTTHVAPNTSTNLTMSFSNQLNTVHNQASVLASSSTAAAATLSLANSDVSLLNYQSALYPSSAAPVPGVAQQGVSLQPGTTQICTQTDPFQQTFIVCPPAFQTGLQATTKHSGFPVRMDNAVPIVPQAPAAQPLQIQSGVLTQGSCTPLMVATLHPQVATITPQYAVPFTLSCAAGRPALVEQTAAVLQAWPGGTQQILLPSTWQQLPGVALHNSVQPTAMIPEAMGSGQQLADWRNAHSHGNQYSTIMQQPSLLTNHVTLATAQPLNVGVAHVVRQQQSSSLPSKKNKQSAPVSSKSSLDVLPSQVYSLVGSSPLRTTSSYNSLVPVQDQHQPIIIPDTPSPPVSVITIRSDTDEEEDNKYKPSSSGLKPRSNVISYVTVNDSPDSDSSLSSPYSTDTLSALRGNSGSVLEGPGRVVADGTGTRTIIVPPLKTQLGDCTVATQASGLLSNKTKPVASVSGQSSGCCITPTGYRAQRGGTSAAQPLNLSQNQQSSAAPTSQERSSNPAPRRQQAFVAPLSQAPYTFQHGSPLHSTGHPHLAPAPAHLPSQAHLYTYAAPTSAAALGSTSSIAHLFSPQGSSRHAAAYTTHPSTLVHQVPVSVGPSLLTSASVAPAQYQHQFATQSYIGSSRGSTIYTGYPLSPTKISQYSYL
EIF2AK3 (human), sequence (Q9NZJ5 whole entry, looked up): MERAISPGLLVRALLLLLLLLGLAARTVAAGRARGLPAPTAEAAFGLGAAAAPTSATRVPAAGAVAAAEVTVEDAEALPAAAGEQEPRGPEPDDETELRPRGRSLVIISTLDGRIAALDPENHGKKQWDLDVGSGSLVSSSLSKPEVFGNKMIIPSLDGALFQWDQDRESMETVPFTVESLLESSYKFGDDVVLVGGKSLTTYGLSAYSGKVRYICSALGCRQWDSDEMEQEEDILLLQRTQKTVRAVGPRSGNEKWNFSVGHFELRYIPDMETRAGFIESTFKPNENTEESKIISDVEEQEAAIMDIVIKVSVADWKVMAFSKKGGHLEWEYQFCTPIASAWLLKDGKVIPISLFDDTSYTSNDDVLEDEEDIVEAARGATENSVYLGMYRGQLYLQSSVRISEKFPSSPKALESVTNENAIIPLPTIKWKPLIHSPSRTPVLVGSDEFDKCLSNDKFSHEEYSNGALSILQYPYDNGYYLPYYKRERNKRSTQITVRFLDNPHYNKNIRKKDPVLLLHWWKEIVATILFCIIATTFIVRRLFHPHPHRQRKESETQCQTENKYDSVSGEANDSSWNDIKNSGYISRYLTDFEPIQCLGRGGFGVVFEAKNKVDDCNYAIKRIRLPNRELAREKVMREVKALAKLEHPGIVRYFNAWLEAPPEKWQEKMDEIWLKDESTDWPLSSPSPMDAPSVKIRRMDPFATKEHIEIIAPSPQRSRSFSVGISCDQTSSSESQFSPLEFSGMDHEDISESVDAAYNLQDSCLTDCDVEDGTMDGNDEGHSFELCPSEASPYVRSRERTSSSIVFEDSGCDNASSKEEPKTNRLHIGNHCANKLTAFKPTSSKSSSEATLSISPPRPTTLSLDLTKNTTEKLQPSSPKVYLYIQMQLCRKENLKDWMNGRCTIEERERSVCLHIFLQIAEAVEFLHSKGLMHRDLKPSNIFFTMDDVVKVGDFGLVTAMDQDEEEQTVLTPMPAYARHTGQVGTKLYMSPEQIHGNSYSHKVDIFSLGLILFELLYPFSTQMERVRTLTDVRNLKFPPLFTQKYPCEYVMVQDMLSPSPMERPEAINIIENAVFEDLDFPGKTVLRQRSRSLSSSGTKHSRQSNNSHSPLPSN
MAPK14 (human), sequence (Q16539 whole entry, looked up): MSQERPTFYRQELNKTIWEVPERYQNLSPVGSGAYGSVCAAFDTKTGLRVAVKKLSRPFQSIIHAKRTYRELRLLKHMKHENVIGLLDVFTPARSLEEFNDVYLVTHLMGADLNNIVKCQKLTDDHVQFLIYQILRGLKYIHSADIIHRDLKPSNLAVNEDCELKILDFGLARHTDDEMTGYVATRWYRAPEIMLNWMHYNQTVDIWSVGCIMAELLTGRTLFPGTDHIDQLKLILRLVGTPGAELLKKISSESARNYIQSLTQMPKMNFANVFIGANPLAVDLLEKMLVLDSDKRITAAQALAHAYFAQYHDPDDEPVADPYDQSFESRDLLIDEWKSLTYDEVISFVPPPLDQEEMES
MAPK13 (human), sequence (O15264 whole entry, looked up): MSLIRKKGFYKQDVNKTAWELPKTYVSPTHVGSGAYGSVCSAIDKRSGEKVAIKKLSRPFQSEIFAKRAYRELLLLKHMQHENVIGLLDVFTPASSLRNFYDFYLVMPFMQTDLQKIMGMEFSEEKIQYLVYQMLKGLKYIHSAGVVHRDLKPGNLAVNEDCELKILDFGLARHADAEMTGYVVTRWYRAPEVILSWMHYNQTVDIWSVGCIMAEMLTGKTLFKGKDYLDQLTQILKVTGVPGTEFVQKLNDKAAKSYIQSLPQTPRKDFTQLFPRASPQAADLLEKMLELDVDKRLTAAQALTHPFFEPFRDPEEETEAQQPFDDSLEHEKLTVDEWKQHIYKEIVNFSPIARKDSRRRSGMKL
SGK1 (human), O00141 [S422D], sequence (O00141 whole entry S422D, looked up): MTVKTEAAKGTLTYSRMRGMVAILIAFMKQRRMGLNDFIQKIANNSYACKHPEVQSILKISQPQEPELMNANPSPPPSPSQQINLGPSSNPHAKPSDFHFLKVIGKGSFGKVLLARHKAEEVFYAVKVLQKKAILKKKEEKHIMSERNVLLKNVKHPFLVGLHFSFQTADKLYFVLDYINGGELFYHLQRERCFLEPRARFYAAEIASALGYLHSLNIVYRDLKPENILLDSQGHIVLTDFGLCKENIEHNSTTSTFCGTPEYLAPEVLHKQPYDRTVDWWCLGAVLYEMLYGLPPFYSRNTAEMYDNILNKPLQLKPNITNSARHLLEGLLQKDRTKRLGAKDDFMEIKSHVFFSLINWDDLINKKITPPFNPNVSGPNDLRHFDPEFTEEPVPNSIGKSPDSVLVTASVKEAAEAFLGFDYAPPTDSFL
DYRK3 (human), sequence (O43781 whole entry, looked up): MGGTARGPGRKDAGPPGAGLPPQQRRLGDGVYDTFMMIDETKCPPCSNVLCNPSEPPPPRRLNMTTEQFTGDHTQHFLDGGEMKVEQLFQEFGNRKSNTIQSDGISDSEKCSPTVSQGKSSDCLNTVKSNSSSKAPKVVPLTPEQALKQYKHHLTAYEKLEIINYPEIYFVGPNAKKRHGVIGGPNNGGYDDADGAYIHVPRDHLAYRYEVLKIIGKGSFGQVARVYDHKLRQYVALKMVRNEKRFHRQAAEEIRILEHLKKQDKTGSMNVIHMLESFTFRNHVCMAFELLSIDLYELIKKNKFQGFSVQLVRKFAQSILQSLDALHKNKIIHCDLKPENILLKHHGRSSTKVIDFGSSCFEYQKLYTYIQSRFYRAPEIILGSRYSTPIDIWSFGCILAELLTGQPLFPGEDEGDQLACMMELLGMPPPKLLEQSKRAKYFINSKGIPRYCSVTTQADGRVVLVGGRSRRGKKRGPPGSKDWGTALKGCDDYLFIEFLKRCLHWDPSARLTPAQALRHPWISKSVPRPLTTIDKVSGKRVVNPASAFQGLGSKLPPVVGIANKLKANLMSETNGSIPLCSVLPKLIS

Compound: CCN1CCN(Cc2ccc(NC(=O)c3ccc(C)c(Oc4ccnc5[nH]ccc45)c3)cc2C(F)(F)F)CC1
- residual activity (MARK2 (human)): 85.5%
- residual activity (EIF2AK3 (human); compound 0.1 µM): 98.8%
- residual activity (EIF2AK3 (human); compound 1.0 µM): 64.6%
- residual activity (EIF2AK3 (human); compound 10.0 µM): 21.4%
- residual activity (DYRK3 (human); compound 0.1 µM): 96.5%
- residual activity (DYRK3 (human); compound 1.0 µM): 86.3%
- residual activity (DYRK3 (human); compound 10.0 µM): 82%
- residual activity (MAPK13 (human); compound 0.1 µM): 98.7%
- residual activity (MAPK13 (human); compound 1.0 µM): 33.7%
- residual activity (MAPK13 (human); compound 10.0 µM): 7.2%
- residual activity (MAP2K6 (human); compound 0.1 µM): 118%
- residual activity (MAP2K6 (human); compound 1.0 µM): 158%
- residual activity (MAP2K6 (human); compound 10.0 µM): 133%
- residual activity ([1]; compound 0.1 µM): 101%
- residual activity ([1]; compound 1.0 µM): 72.8%
- residual activity ([1]; compound 10.0 µM): 52.1%
- residual activity (JAK2 JH1 JH2 (human); compound 0.1 µM): 93.4%
- residual activity (JAK2 JH1 JH2 (human); compound 1.0 µM): 92.4%
- residual activity (JAK2 JH1 JH2 (human); compound 10.0 µM): 41.6%
- residual activity (NUAK1 (human); compound 0.1 µM): 85.8%
- residual activity (NUAK1 (human); compound 1.0 µM): 90.5%
- residual activity (NUAK1 (human); compound 10.0 µM): 84.9%
- residual activity (MAPKAPK2 (human); compound 0.1 µM): 110%
- residual activity (MAPKAPK2 (human); compound 1.0 µM): 122%
- residual activity (MAPKAPK2 (human); compound 10.0 µM): 113%
- residual activity (MAPK14 (human); compound 0.1 µM): 41%
- residual activity (MAPK14 (human); compound 1.0 µM): 3.48%
- residual activity (MAPK14 (human); compound 10.0 µM): 2.61%
- residual activity (PDPK1 (human); compound 0.1 µM): 101% and 98%
- residual activity (PDPK1 (human); compound 1.0 µM): 100% and 86.1%
- residual activity (MAPK12 (human); compound 1.0 µM): 37.8%
- residual activity (MAPK12 (human); compound 10.0 µM): 10.8%
- residual activity (MKNK1 (human); compound 0.1 µM): 98%
- residual activity (MKNK1 (human); compound 1.0 µM): 104%
- residual activity (MKNK1 (human); compound 10.0 µM): 82.7%
- residual activity (HIPK1 (human); compound 0.1 µM): 95%
- residual activity (HIPK1 (human); compound 1.0 µM): 70.8%
- residual activity (HIPK1 (human); compound 10.0 µM): 28.7%
- residual activity (CHEK2 (human); compound 0.1 µM): 117%
- residual activity (CHEK2 (human); compound 1.0 µM): 103%
- residual activity (CHEK2 (human); compound 10.0 µM): 67.9%
